These results are taken from patent publication US20100120311A1, “METHOD FOR PROVIDING TEXTILES WITH DESENSITIZED SILVER COMPONENTS” (priority 2006, published 2010).

The data set is described as follows: Visual assessment of discoloration on exposure to light. The conditions noted are these: benzotriazole up to 5 g/g of silver ions, hydroxylamine hydrochloride up to 3 g/g of silver ions, without pinacryptol yellow.

Structures are written as SMILES.

For the compound `c1ccc2[nH]nnc2c1` [benzotriazole], the “suppression of discoloration of formulation and textile by stabilizer” value is listed as “not capable, in the concentration used, of permanently suppressing either the discoloration of the formulation itself or the discoloration of the textile”.

As to `Cl.NO` [hydroxylamine hydrochloride], the “suppression of discoloration of formulation and textile by stabilizer” value is given as “not capable, in the concentration used, of permanently suppressing either the discoloration of the formulation itself or the discoloration of the textile”.
